Measurements: US8436015B2, “Glucagon receptor antagonist compounds, compositions containing such compounds and methods of use” (Merck Sharp & Dohme Corp., priority 2008, dated 2013)

What follows are compounds tested against T1, human glucagon receptor (Homo sapiens, UniProt P47871) (assay: Glucagon Receptor Binding Assay). Conditions: more active isomer of indicated compounds; 125I-glucagon displacement, membranes of CHO cells expressing cloned human glucagon receptor.
T1 construct: expressed in transfected cells; cell membranes used
Protocol: A stable CHO (Chinese hamster ovary) cell line expressing cloned human glucagon receptor was maintained as described (Chicchi et al. J Biol Chem 272, 7765-9 (1997); Cascieri et al. J Biol Chem 274, 8694-7 (1999)). […] After 4-12 hours incubation at room temperature, the radioactivity bound to the cell membranes was determined in a radioactive emission detection counter (Wallac-Microbeta). Data was analyzed using the software program Prism from GraphPad. The IC50 values were calculated using non-linear regression analysis assuming single site competition.

T1 sequence (P47871 26-477): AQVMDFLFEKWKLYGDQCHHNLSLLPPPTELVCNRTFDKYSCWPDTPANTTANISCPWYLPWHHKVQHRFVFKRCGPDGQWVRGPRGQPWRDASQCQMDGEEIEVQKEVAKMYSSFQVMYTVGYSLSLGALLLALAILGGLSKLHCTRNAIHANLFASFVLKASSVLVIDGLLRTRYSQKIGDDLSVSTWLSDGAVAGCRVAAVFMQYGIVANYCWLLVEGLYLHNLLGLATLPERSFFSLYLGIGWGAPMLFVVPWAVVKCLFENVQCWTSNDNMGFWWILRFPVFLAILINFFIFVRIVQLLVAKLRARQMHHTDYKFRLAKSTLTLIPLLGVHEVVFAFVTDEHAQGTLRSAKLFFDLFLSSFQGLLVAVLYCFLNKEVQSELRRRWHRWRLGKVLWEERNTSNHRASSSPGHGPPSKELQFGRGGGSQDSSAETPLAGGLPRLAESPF

IC50 [nM]	SMILES
0.2	O=C(O)CCNC(=O)c1ccc(C(CCC(F)(F)F)C(c2ccc(Cl)cc2)c2ccnc3cc(Cl)ccc23)cc1 (stereo not drawn) [Example 55]
0.3	CCCC(c1ccc(C(=O)NCCC(=O)O)cc1)C(c1ccc(OC(F)(F)F)cc1)c1cncc2cc(Cl)ccc12 (stereo not drawn) [Example 139]
0.4	O=C(O)CCNC(=O)c1ccc(C(CCC(F)(F)F)C(c2ccc(Cl)cc2)c2cncc3cc(Cl)ccc23)cc1 (stereo not drawn) [Example 138]
0.3	CCCC(c1ccc(C(=O)NCCC(=O)O)cc1)C(c1ccc(Cl)c(Cl)c1)c1ccnc2c(C)cc(Cl)cc12 (stereo not drawn) [Example 84]
0.3	CCC(c1ccc(C(=O)NCCC(=O)O)cc1)C(c1ccc(OC(F)(F)F)cc1)c1cccc2nc(OC)ccc12 (stereo not drawn) [Example 115]
1	CCC[C@H](c1ccc(C(=O)NCCC(=O)O)cc1)C(c1ccc(Cl)cc1)c1ccnc2c(C)cc(Cl)cc12 (single isomer, unassigned) [Example 1]
0.4	CCCC(c1ccc(C(=O)NCCC(=O)O)cc1)C(c1ccc(Cl)cc1)c1cccc2nc(OC3CCC3)ccc12 (stereo not drawn) [Example 108]
0.2	CCCC(c1ccc(C(=O)NCCC(=O)O)cc1)C(c1ccc(Cl)cc1)c1ccnc2c(F)c(C)c(F)cc12 (stereo not drawn) [Example 72]
0.6	CCCC(c1ccc(C(=O)NCCC(=O)O)cc1)C(c1ccc(Cl)cc1)c1ccnc2c(Cl)cc(OC)cc12 (stereo not drawn) [Example 10]
0.9	CCCC(c1ccc(C(=O)NCCC(=O)O)cc1)C(c1ccc(Cl)cc1)c1cccc2nc(OCCOC)ccc12 (stereo not drawn) [Example 112]
12	CCCC(c1ccc(C(=O)NCCC(=O)O)cc1)C(c1ccc(Cl)cc1)c1cccc2ccc(OC)nc12 (stereo not drawn) [Example 146]
0.2	CCCC(c1ccc(C(=O)NCCC(=O)O)cc1)C(c1ccc(OC(F)(F)F)cc1)c1ccnc2cc(F)ccc12 (stereo not drawn) [Example 62]
0.5	CCCC(c1ccc(C(=O)NCCC(=O)O)cc1)C(c1ccc(Cl)cc1)c1ccnc2cc(Cl)ccc12 (stereo not drawn) [Example 7]
1.8	CCCC(c1ccc(C(=O)NCCC(=O)O)cc1)C(c1ccc(Cl)cc1)c1ccc2nc(OC)ccc2c1 (stereo not drawn) [Example 120]
0.4	CCCC(c1ccc(C(=O)NCCC(=O)O)cc1)C(c1ccc(Cl)cc1)c1cc(C)nc2cc(Cl)ccc12 (stereo not drawn) [Example 37]
5	CCC[C@H](c1ccc(C(=O)NCCC(=O)O)cc1)C(c1ccc(Cl)cc1)c1cnc2cc(C(F)(F)F)ccc2c1 (single isomer, unassigned) [Example 3]
0.1	CCCC(c1ccc(C(=O)NCCC(=O)O)cc1)C(c1ccc(Cl)cc1)c1ccnc2cc(OC(F)(F)F)ccc12 (stereo not drawn) [Example 24]
1.1	CCCC(c1ccc(C(=O)NCCC(=O)O)cc1)C(c1ccc(Cl)cc1)c1ccnc2c(C)cc(OC(F)(F)F)cc12 (stereo not drawn) [Example 52]
0.5	CCC[C@H](c1ccc(C(=O)NCCC(=O)O)cc1)C(c1ccc(Cl)cc1)c1cccc2nc(OC)ccc12 (single isomer, unassigned) [Example 2]
1.4	CCC[C@H](c1ccc(C(=O)NCCC(=O)O)cc1)C(c1ccc(Cl)cc1)c1ncnc2c(F)cc(C)cc12 (single isomer, unassigned) [Example 173]
1.7	CCCC(c1ccc(C(=O)NCCC(=O)O)cc1)C(c1ccc(Cl)cc1)c1nc(CC)c2cc(OC)ccc2n1 (single isomer, unassigned) [Example 174, N-(4-{1-[(4-Chlorophenyl)(4-Ethyl-6-Methoxyquinazolin-2-Yl)Methyl]Butyl}Benzoyl)-β-Alanine]
0.3	CCC[C@H](c1ccc(C(=O)NCCC(=O)O)cc1)C(c1ccc(Cl)cc1)c1ccnc2cc(F)c(F)cc12 (single isomer, unassigned) [Example 157]
0.8	CCCC(c1ccc(C(=O)NCCC(=O)O)cc1)C(c1ccc(Cl)cc1)c1ccnc2c(C)cc(F)cc12 (stereo not drawn) [Example 35]
4.5	CCCC(c1ccc(C(=O)NCCC(=O)O)cc1)C(c1ccc(Cl)cc1)c1nc(C2CCCCC2)c2ccc(C(F)(F)F)cc2n1 (stereo not drawn) [Example 179]
18	CCC[C@H](c1ccc(C(=O)NCCC(=O)O)cc1)C(c1ccc(Cl)cc1)c1cccc2nc(-c3ccn[nH]3)ccc12 (stereo partly drawn) [Example 171, N-(4-{(1S)-1-[(4-Chlorophenyl)(2-(1H-Pyrazol-5-Yl)Quinolin-5-Yl)Methyl]Butyl}Benzoyl)-β-Alanine]
0.6	CCCC(c1ccc(C(=O)NCCC(=O)O)cc1)C(c1cccc(Cl)c1)c1ccnc2cc(F)c(F)cc12 (stereo not drawn) [Example 159]
0.5	CCCC(c1ccc(C(=O)NCCC(=O)O)cc1)C(c1ccc(Cl)cc1)c1ccnc2cc(C)c(Cl)cc12 (stereo not drawn) [Example 50]
1.4	CCCC(c1ccc(C(=O)NCCC(=O)O)cc1)C(c1ccc(Cl)cc1)c1cc(C)nc2ccc(Cl)cc12 (stereo not drawn) [Example 23]
0.2	Cc1cc2nccc(C(c3ccc(Cl)cc3)C(CCC(F)(F)F)c3ccc(C(=O)NCCC(=O)O)cc3)c2cc1F (stereo not drawn) [Example 77]
0.5	CCCC(c1ccc(C(=O)NCCC(=O)O)cc1)C(c1ccc(Cl)cc1)c1cncc2c(Cl)cccc12 (stereo not drawn) [Example 131]
